According to patent US5876694A, “Azavesamicols” (priority 1997, dated 1999):

Key:
[1] = test system: vesicular ACh transport; details: earlier studies; cited from earlier work
[2] = test system: vesamicol receptor; details: cited from earlier work; for vesamicol receptor affinity (in words): earlier studies
[3] = test system: vesamicol receptor; details: rodent brain, cited from earlier work
[4] = test system: vesamicol receptor; assay: Ex vivo autoradiography of rat brain; assay type: in vivo, male Wistar rats; details: 3 hrs after iv
Method: Ex-vivo Autoradiographic Studies
Two groups of male Wistar rats (n=2) were used in these experiments. Each animal in the first group received an i.v. injection of (+)-[^125 I]12h (385 uCi in 0.1/ml of 50% aq. EtOH). Similarly, animals in the second group received 330 uCi of (-)-[^125 I]12h (in 0.1 ml of 50% aq. EtOH). After 3 hrs, the animals were sacrificed by decapitation. The brains were carefully removed, embedded in Tissue Tek OCT medium and frozen to […] Twenty micron thick coronal brain slices were subsequently obtained by sectioning rostrocaudally with a Reichert HistoSTAT microtome at -15°. The tissue sections were apposed to Kodak NMC film accompanied by ^125 I-labeled external standards (^125 I-Microscales from Amersham). For delineation of cytoarchitecture, adjacent tissue sections were subjected to Nissl staining.

[5] = Tissue distribution of radiotracer in rats; assay type: in vivo, male Wistar rats
Method: Tissue Distribution Experiments
Four groups of male Wistar rats (n=4) weighing 200-350 g were used in these experiments. Each animal received, while under ether anesthesia, an intravenous injection of the radiotracer (3-5 uCi) dissolved in 0.1 mL of 50% aqueous ethanol. At 5, 30, 60 and 180 min post-injection, blood was collected from the anesthetized animal by cardiac puncture, and the animal was immediately sacrificed by cardiectomy. The organs and tissues of interest were harvested, transferred to preweighed tubes and counted in a Beckman gamma counter. The tubes were subsequently reweighed to give the weight of the corresponding tissues. Preweighed tubes containing 1 mL samples of a 1:100 dilution of the injected dose were also counted and used as reference for calculating the tissue accumulation of radioactivity. The accumulation of radiotracer was expressed as a percentage of injected dose per gram of tissue.
The animals were injected intravenously with 4.9 uCi of the radiotracer i
0.1 ml of 50% aq. EtOH.
The animals were injected with 3.7 uCi of the radiotracer in 0.1 ml of 50

In the case of `O[C@@H]1Cc2ccccc2C[C@H]1N1CCC(c2ccccc2)CC1` (relative stereo) [Compound 2a], the “inhibition of vesicular ACh transport / activity (in words)” value [1] is listed as “potent inhibitors of vesicular ACh transport” and the “vesamicol receptor affinity (in words)” value [2] is listed as “potent ligands”.
In the case of `Nc1cccc2c1C[C@@H](N1CCC(c3ccccc3)CC1)[C@H](O)C2` (relative stereo) [Compound 2b], the “inhibition of vesicular ACh transport / activity (in words)” value [1] is given as “potent inhibitors of vesicular ACh transport” and the “vesamicol receptor affinity (in words)” value [2] is given as “potent ligands”.
For `O[C@@H]1CCCC[C@H]1N1CCC(c2ccccc2)CC1` (relative stereo) [[^3 H]vesamicol], the “cortical [^3 H]vesamicol binding after lesioning a known cholinergic pathway (in words)” value ([3]; lesion) is listed as “significant decrease” and the “[^3 H]vesamicol distribution versus other cholinergic markers (in words)” value [3] is listed as “correlate well with other markers of cholinergic innervation”.
For `OC1CCN(Cc2cccc([125I])c2)CC1N1CCC(c2ccccc2)CC1` (stereo not drawn) [(+)-[^125 I]12h, (+)- and (-)-4-hydroxy-1-(3-[I^125]iodobenzyl)-3-(4-phenyl-piperidinyl)piperidine], the “brain regional distribution: cortex, hippocampus and cerebellum” value [4] was “Moderate levels of activity”, the “brain regional distribution: interpeduncular nucleus, olfactory tubercle, nucleus accumbens, amygdala, caudate-putamen, nuclei of fifth and seventh cranial nerves” value [4] was “high levels of radioactivity” and the Ratio brain/blood ([5]; 5 min, iv) was 2.33. The Ratio heart/blood ([5]; 5 min, iv) was 4.68, the “Tissue distribution, blood” value ([5]; 5 min, iv) was 0.24 % dose/g of tissue and the “Tissue distribution, brain” value ([5]; 5 min, iv) was 0.57 % dose/g of tissue. For the same compound, the “Tissue distribution, gonads” value ([5]; 5 min, iv) was 0.13 % dose/g of tissue, the “Tissue distribution, heart” value ([5]; 5 min, iv) was 1.14 % dose/g of tissue and the “Tissue distribution, kidney” value ([5]; 5 min, iv) was 2.25 % dose/g of tissue. For the same compound, the “Tissue distribution, liver” value ([5]; 5 min, iv) was 1.60 % dose/g of tissue, the “Tissue distribution, lung” value ([5]; 5 min, iv) was 3.67 % dose/g of tissue and the “Tissue distribution, muscle” value ([5]; 5 min, iv) was 0.34 % dose/g of tissue. For the same compound, the “Tissue distribution, spleen” value ([5]; 5 min, iv) was 0.76 % dose/g of tissue, the “Tissue distribution, thyroid” value ([5]; 5 min, iv) was 1.60 % dose/g of tissue and the “radioactivity in liver, heart, thyroid and spleen (in words)” value ([5]; 5 min, iv) was “Moderate to low levels”. For the same compound, the “radioactivity in lung and kidney (in words)” value ([5]; 5 min, iv) was “high levels of radioactivity”, the radioactivity in brain ([5]; 5 min post-injection, iv) was 1.06 % of the injected dose and the Ratio brain/blood ([5]; 30 min, iv) was 3.18. For the same compound, the Ratio heart/blood ([5]; 30 min, iv) was 2.33, the “Tissue distribution, blood” value ([5]; 30 min, iv) was 0.12 % dose/g of tissue and the “Tissue distribution, brain” value ([5]; 30 min, iv) was 0.36 % dose/g of tissue. For the same compound, the “Tissue distribution, gonads” value ([5]; 30 min, iv) was 0.15 % dose/g of tissue, the “Tissue distribution, heart” value ([5]; 30 min, iv) was 0.26 % dose/g of tissue and the “Tissue distribution, kidney” value ([5]; 30 min, iv) was 1.32 % dose/g of tissue. For the same compound, the “Tissue distribution, liver” value ([5]; 30 min, iv) was 2.18 % dose/g of tissue, the “Tissue distribution, lung” value ([5]; 30 min, iv) was 1.21 % dose/g of tissue and the “Tissue distribution, muscle” value ([5]; 30 min, iv) was 0.16 % dose/g of tissue. The “Tissue distribution, spleen” value ([5]; 30 min, iv) was 1.07 % dose/g of tissue, the “Tissue distribution, thyroid” value ([5]; 30 min, iv) was 2.33 % dose/g of tissue and the Ratio brain/blood ([5]; 60 min, iv) was 3.08. For the same compound, the Ratio heart/blood ([5]; 60 min, iv) was 1.70, the “Tissue distribution, blood” value ([5]; 60 min, iv) was 0.09 % dose/g of tissue and the “Tissue distribution, brain” value ([5]; 60 min, iv) was 0.27 % dose/g of tissue. For the same compound, the “Tissue distribution, gonads” value ([5]; 60 min, iv) was 0.17 % dose/g of tissue, the “Tissue distribution, heart” value ([5]; 60 min, iv) was 0.15 % dose/g of tissue and the “Tissue distribution, kidney” value ([5]; 60 min, iv) was 0.87 % dose/g of tissue. The “Tissue distribution, liver” value ([5]; 60 min, iv) was 1.91 % dose/g of tissue, the “Tissue distribution, lung” value ([5]; 60 min, iv) was 0.82 % dose/g of tissue and the “Tissue distribution, muscle” value ([5]; 60 min, iv) was 0.11 % dose/g of tissue. For the same compound, the “Tissue distribution, spleen” value ([5]; 60 min, iv) was 0.86 % dose/g of tissue, the “Tissue distribution, thyroid” value ([5]; 60 min, iv) was 4.59 % dose/g of tissue and the radioactivity in brain ([5]; 60 min post-injection, iv) was 0.51 % of the injected dose. For the same compound, the Ratio brain/blood ([5]; 180 min, iv) was 2.35, the Ratio heart/blood ([5]; 180 min, iv) was 1.60 and the “Tissue distribution, blood” value ([5]; 180 min, iv) was 0.07 % dose/g of tissue. The “Tissue distribution, brain” value ([5]; 180 min, iv) was 0.15 % dose/g of tissue, the “Tissue distribution, gonads” value ([5]; 180 min, iv) was 0.16 % dose/g of tissue and the “Tissue distribution, heart” value ([5]; 180 min, iv) was 0.10 % dose/g of tissue. For the same compound, the “Tissue distribution, kidney” value ([5]; 180 min, iv) was 0.50 % dose/g of tissue, the “Tissue distribution, liver” value ([5]; 180 min, iv) was 1.18 % dose/g of tissue and the “Tissue distribution, lung” value ([5]; 180 min, iv) was 0.39 % dose/g of tissue. For the same compound, the “Tissue distribution, muscle” value ([5]; 180 min, iv) was 0.08 % dose/g of tissue, the “Tissue distribution, spleen” value ([5]; 180 min, iv) was 0.44 % dose/g of tissue and the “Tissue distribution, thyroid” value ([5]; 180 min, iv) was 13.13 % dose/g of tissue. For the same compound, the radioactivity in brain ([5]; 3 hrs post-injection, iv) was 0.39 % of the injected dose and the “radioactivity in thyroid (in words)” value ([5]; beginning to 3 hrs post-injection) was “moderate at the beginning but increased significantly by 3 hrs post-injection”.
For `OCCN1CCC(c2ccccc2)CC1` [Compound 4a], the “inhibition of vesicular ACh transport / activity (in words)” value [1] is listed as “substantially diminished activity”.
In the case of `CCC(O)CN1CCC(c2ccccc2)CC1` (centres unmarked) [Compound 4b], the “inhibition of vesicular ACh transport / activity (in words)” value [1] is given as “substantially diminished activity” and the increase in activity ([2]; 4b relative to 4a) is given as 30 fold.
